Experimental data taken from article PMC6207618, “The GbsR Family of Transcriptional Regulators: Functional Characterization of the OpuAR Repressor” (Frontiers in Microbiology, 2018).
“Also recorded” adds a separate entry of the source.

System: opuAA-treA reporter activity
Assay: opuAA-treA reporter fusion TreA enzyme activity assay
Type: cell-based, Bacillus subtilis
Settings: strain STHB10 (OpuAR+), SMM with 1.2 M NaCl, 1 mM compatible solute
Text: opuAAB.infantis′-treA reporter gene fusions were constructed using primers opuAR treA Frag1/2 rev and either opuAR treA Frag1/4 for (Supplementary Table S2) to amplify a 1940-bp DNA fragment from chromosomal DNA of B. infantis NRRL B-14911, including the predicted opuA promoter region and the coding region of opuAR, or primer opuAR treA Frag2 for, to generate a fragment lacking the opuAR gene. PCR products, which had been cut with BamHI and SmaI, were cloned into the vector pJMB1 ([Hoffmann et al., 2013]). This vector carries a promoterless treA gene, whose gene product [phospho-α-(1,1)-glucosidase] can be assayed and photometrically quantitated with the chromogenic substrate α-PNPG ([Gotsche and Dahl, 1995]). The plasmids resulting for the construction of the treA transcriptional reporter gene fusions were named pSTH33 (opuAR^+/opuAAB.i-treA) and pSTH34 (opuAR^-/opuAAB.i-treA) (Supplementary Table S3). All treA reporter gene fusions were stably integrated as a single copy into the chromosome of various B. subtilis strains at the amyE gene; all of these strains carry a gene disruption mutation of the native chromosomal treA gene of B. subtilis to allow the assignment of the measured TreA enzyme activity to the reporter gene constructs (Supplementary Table S1).
Aliquots (1.5 ml) from cultures of B. subtilis strains carrying chromosomal opuAAB.i′-treA reporter operon gene fusions (Supplementary Table S1) were used to monitor the expression levels by assaying the TreA reporter enzyme activity as described previously using the chromogenic substrate α-PNPG ([Gotsche and Dahl, 1995]). The TreA-specific activity is expressed in units per milligram of protein. Protein concentrations were estimated from the optical density of the cell culture harboring the treA reporter operon gene fusion ([Miller, 1972]).
FIGURE 6 Influence of the B. subtilis GbsR-like regulators on the expression of opuA from B. infantis and its transcriptional response to the presence of compatible solutes. (A) Genetic structure of the opuAA-treA transcriptional reporter fusions. (B) The opuAA-treA reporter gene fusions, either including or lacking the B. infantis opuAR gene, were integrated into the chromosome of the B. subtilis strain STHB05; it carries gene disruption mutations of all three GbsR-like regulators, resulting in strains STHB10 (OpuAR^+) and STHB11 (OpuAR^-). […] The opuAA-treA reporter strains were grown in SMM to early exponential growth phase (OD578 1–1.5) and then assayed for TreA reporter enzyme activity. The shown data represent four independent biological replicates and each culture was assayed twice. (C) Strain STHB10 (opuAR^+/opuAA-treA) was grown in SMM with increasing NaCl concentrations until each of these cultures reached mid-exponential growth phase (OD578 of about 1.5) and were then harvested for TreA reporter enzyme activity assays. The given data are the means and standard deviations of four independent biological replicates and each culture was assayed twice. (D) Expression of the opuAA-treA reporter gene construct in response to extracellular provided compatible solutes. The opuAA-treA reporter fusion strains STHB10 (OpuAR^+) and STHB11 (OpuAR^-) were cultivated in SMM containing 1.2 M NaCl either in the absence or presence of 1 mM of the indicated compatible solutes. The opuAA-treA reporter fusion strains were grown to early exponential growth phase (OD578 1–1.5) and then assayed for TreA reporter enzyme activity. The given data are the means and standard deviations of four independent biological replicates and each culture was assayed twice.
To identify possible effector molecules for the B. infantis OpuAR protein, we conducted a series of in vivo experiments in which we assessed any possible inducing effects of compatible solutes on opuAA-treA transcriptional activity in an OpuAR-dependent fashion (Figure 6D).

C[N+](C)(C)CCC(=O)[O-] [homobetaine]
Induction of opuAA-treA reporter activity (OpuAR-dependent): did not serve as inducers

C[N+](C)(C)CCO [choline]
Induction of opuAA-treA reporter activity (OpuAR-dependent): served as inducers; also recorded: induced

C[N+]1(C)CCC[C@H]1C(=O)[O-] [proline betaine]
Induction of opuAA-treA reporter activity (OpuAR-dependent): served as inducers; also recorded: induced

C[N+](C)(C)CC(=O)[O-] [glycine betaine]
Induction of opuAA-treA reporter activity (OpuAR-dependent): served as inducers; also recorded: induced

C[S+](C)CCC(=O)[O-] [DMSP, dimethylsulfoniopropionate]
Induction of opuAA-treA reporter activity (OpuAR-dependent): did not serve as inducers

CN(C)CC(=O)O [DMG, dimethlyglycine]
Induction of opuAA-treA reporter activity (OpuAR-dependent): did not serve as inducers
